Data published in PubChem BioAssay (NCI).
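Where inhibition never reached the appropriate level, the endpoint shown equals the highest concentration tested. Otherwise, values were interpolated linearly from a five-concentration, 48-hour dose response in 96-well plates. GI50 marks 50% less growth. TGI is the concentration that stops growth completely.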

What was measured:
Assay in all cases: NCI-60 cell line screen, 48 h
BT-549 breast = tested on: BT-549 breast
786-0 renal = tested on: 786-0 renal
PC-3 prostate = tested on: PC-3 prostate
A549 NSCLC = tested on: A549 NSCLC
SW-620 colon = tested on: SW-620 colon
SK-OV-3 ovarian = tested on: SK-OV-3 ovarian
SNB-75 CNS = tested on: SNB-75 CNS
MDA-MB-231 breast = tested on: MDA-MB-231 breast
HCC-2998 colon = tested on: HCC-2998 colon
SF-295 CNS = tested on: SF-295 CNS
T-47D breast = tested on: T-47D breast
UACC-62 melanoma = tested on: UACC-62 melanoma
UACC-257 melanoma = tested on: UACC-257 melanoma
MOLT-4 leukemia = tested on: MOLT-4 leukemia
HL-60(TB) leukemia = tested on: HL-60(TB) leukemia
M14 melanoma = tested on: M14 melanoma
ACHN renal = tested on: ACHN renal
IGROV1 ovarian = tested on: IGROV1 ovarian
EKVX NSCLC = tested on: EKVX NSCLC
MALME-3M melanoma = tested on: MALME-3M melanoma
OVCAR-5 ovarian = tested on: OVCAR-5 ovarian
U251 CNS = tested on: U251 CNS
RPMI-8226 leukemia = tested on: RPMI-8226 leukemia
HOP-62 NSCLC = tested on: HOP-62 NSCLC
HS 578T breast = tested on: HS 578T breast
SR leukemia = tested on: SR leukemia
SN12C renal = tested on: SN12C renal
NCI/ADR-RES ovarian = tested on: NCI/ADR-RES ovarian
DU-145 prostate = tested on: DU-145 prostate
RXF 393 renal = tested on: RXF 393 renal
SK-MEL-5 melanoma = tested on: SK-MEL-5 melanoma
HT29 colon = tested on: HT29 colon
CAKI-1 renal = tested on: CAKI-1 renal
SF-268 CNS = tested on: SF-268 CNS
LOX IMVI melanoma = tested on: LOX IMVI melanoma
TK-10 renal = tested on: TK-10 renal
MCF7 breast = tested on: MCF7 breast
NCI-H460 lung = tested on: NCI-H460 lung
A498 renal = tested on: A498 renal
SK-MEL-28 melanoma = tested on: SK-MEL-28 melanoma
SF-539 CNS = tested on: SF-539 CNS
NCI-H226 lung = tested on: NCI-H226 lung
OVCAR-4 ovarian = tested on: OVCAR-4 ovarian
SNB-19 CNS = tested on: SNB-19 CNS
MDA-MB-435 = tested on: MDA-MB-435
KM12 colon = tested on: KM12 colon
HOP-92 NSCLC = tested on: HOP-92 NSCLC
UO-31 renal = tested on: UO-31 renal
NCI-H23 lung = tested on: NCI-H23 lung
CCRF-CEM leukemia = tested on: CCRF-CEM leukemia
COLO 205 colon = tested on: COLO 205 colon
K-562 leukemia = tested on: K-562 leukemia
HCT-116 colon = tested on: HCT-116 colon
SK-MEL-2 melanoma = tested on: SK-MEL-2 melanoma
OVCAR-3 ovarian = tested on: OVCAR-3 ovarian
HCT-15 colon = tested on: HCT-15 colon
OVCAR-8 ovarian = tested on: OVCAR-8 ovarian

SMILES: Cc1ccc(-c2csc(N/N=C/c3nc4ccccc4n3C3CC3)n2)cc1
- GI50 (BT-549 breast): 4470 nM
- TGI (BT-549 breast): 17.6 µM
- GI50 (786-0 renal): 4120 nM
- TGI (786-0 renal): 16 µM
- GI50 (PC-3 prostate): 12 µM
- TGI (PC-3 prostate): 25.7 µM
- GI50 (A549 NSCLC): 5.55 µM
- TGI (A549 NSCLC): 26.9 µM
- GI50 (SW-620 colon): 1620 nM
- TGI (SW-620 colon): 3.29 µM
- GI50 (SK-OV-3 ovarian): 8.53 µM
- TGI (SK-OV-3 ovarian): > 100 µM
- GI50 (SNB-75 CNS): 1860 nM
- TGI (SNB-75 CNS): 3.9 µM
- GI50 (MDA-MB-231 breast): 10.6 µM
- TGI (MDA-MB-231 breast): 41.4 µM
- GI50 (HCC-2998 colon): 16.2 µM
- TGI (HCC-2998 colon): 46.5 µM
- GI50 (SF-295 CNS): 45.5 µM
- TGI (SF-295 CNS): > 100000 nM
- GI50 (T-47D breast): 2140 nM
- TGI (T-47D breast): 5.27 µM
- GI50 (UACC-62 melanoma): 16.5 µM
- TGI (UACC-62 melanoma): 31 µM
- GI50 (UACC-257 melanoma): 1510 nM
- TGI (UACC-257 melanoma): 2930 nM
- GI50 (MOLT-4 leukemia): 2180 nM
- TGI (MOLT-4 leukemia): 4.75 µM
- GI50 (HL-60(TB) leukemia): 1860 nM
- TGI (HL-60(TB) leukemia): 4.38 µM
- GI50 (M14 melanoma): 1750 nM
- TGI (M14 melanoma): 3.43 µM
- GI50 (ACHN renal): 1580 nM
- TGI (ACHN renal): 3.08 µM
- GI50 (IGROV1 ovarian): 5.73 µM
- TGI (IGROV1 ovarian): 35.9 µM
- GI50 (EKVX NSCLC): 21 µM
- TGI (EKVX NSCLC): 55.9 µM
- GI50 (MALME-3M melanoma): 1990 nM
- TGI (MALME-3M melanoma): 3.84 µM
- GI50 (OVCAR-5 ovarian): 17.6 µM
- TGI (OVCAR-5 ovarian): 39.5 µM
- GI50 (U251 CNS): 2720 nM
- TGI (U251 CNS): 8.33 µM
- GI50 (RPMI-8226 leukemia): 1950 nM
- TGI (RPMI-8226 leukemia): 4710 nM
- GI50 (HOP-62 NSCLC): 3.67 µM
- TGI (HOP-62 NSCLC): 49.7 µM
- GI50 (HS 578T breast): 11.7 µM
- TGI (HS 578T breast): 57 µM
- GI50 (SR leukemia): 2020 nM
- TGI (SR leukemia): 5.63 µM
- GI50 (SN12C renal): 8.55 µM
- TGI (SN12C renal): 31.5 µM
- GI50 (NCI/ADR-RES ovarian): 13.6 µM
- TGI (NCI/ADR-RES ovarian): > 100 µM
- GI50 (DU-145 prostate): 1830 nM
- TGI (DU-145 prostate): 3.42 µM
- GI50 (RXF 393 renal): 1950 nM
- TGI (RXF 393 renal): 4460 nM
- GI50 (SK-MEL-5 melanoma): 2040 nM
- TGI (SK-MEL-5 melanoma): 11.4 µM
- GI50 (HT29 colon): 1840 nM
- TGI (HT29 colon): 3.48 µM
- GI50 (CAKI-1 renal): 1520 nM
- TGI (CAKI-1 renal): 3.07 µM
- GI50 (SF-268 CNS): 4.21 µM
- TGI (SF-268 CNS): 21.1 µM
- GI50 (LOX IMVI melanoma): 4610 nM
- TGI (LOX IMVI melanoma): 36.4 µM
- GI50 (TK-10 renal): 1680 nM
- TGI (TK-10 renal): 3.05 µM
- GI50 (MCF7 breast): 1920 nM
- TGI (MCF7 breast): 4.39 µM
- GI50 (NCI-H460 lung): 7.72 µM
- TGI (NCI-H460 lung): 27.1 µM
- GI50 (A498 renal): 14.4 µM
- TGI (A498 renal): 33.6 µM
- GI50 (SK-MEL-28 melanoma): 1820 nM
- TGI (SK-MEL-28 melanoma): 3350 nM
- GI50 (SF-539 CNS): 12.2 µM
- TGI (SF-539 CNS): 27.5 µM
- GI50 (NCI-H226 lung): 8.34 µM
- TGI (NCI-H226 lung): > 100 µM
- GI50 (OVCAR-4 ovarian): 1740 nM
- TGI (OVCAR-4 ovarian): 3.33 µM
- GI50 (SNB-19 CNS): 5.19 µM
- TGI (SNB-19 CNS): 79.4 µM
- GI50 (MDA-MB-435): 10.5 µM
- TGI (MDA-MB-435): 23.6 µM
- GI50 (KM12 colon): 16.3 µM
- TGI (KM12 colon): 59.8 µM
- GI50 (HOP-92 NSCLC): 1650 nM
- TGI (HOP-92 NSCLC): 3.13 µM
- GI50 (UO-31 renal): 1600 nM
- TGI (UO-31 renal): 3.05 µM
- GI50 (NCI-H23 lung): 20 µM
- TGI (NCI-H23 lung): 61 µM
- GI50 (CCRF-CEM leukemia): 2150 nM
- TGI (CCRF-CEM leukemia): 5.39 µM

SMILES: C#C[C@]1(O)CC[C@H]2[C@@H]3CC=C4c5sc(Nc6cc(Cl)ccc6OC)nc5CC[C@]4(C)[C@H]3CC[C@@]21C
- GI50 (BT-549 breast): 797 nM
- TGI (BT-549 breast): 5.46 µM
- GI50 (786-0 renal): 381 nM
- TGI (786-0 renal): 1.97 µM
- GI50 (COLO 205 colon): 2190 nM
- TGI (COLO 205 colon): 4.39 µM
- GI50 (K-562 leukemia): 581 nM
- TGI (K-562 leukemia): 9.42 µM
- GI50 (A549 NSCLC): 2.86 µM
- TGI (A549 NSCLC): > 100 µM
- GI50 (SW-620 colon): 1670 nM
- TGI (SW-620 colon): 3.86 µM
- GI50 (SK-OV-3 ovarian): 4.27 µM
- TGI (SK-OV-3 ovarian): > 100 µM
- GI50 (HCT-116 colon): 1130 nM
- TGI (HCT-116 colon): 2560 nM
- GI50 (MDA-MB-231 breast): 1.96 µM
- TGI (MDA-MB-231 breast): 4.88 µM
- GI50 (HCC-2998 colon): 1.75 µM
- TGI (HCC-2998 colon): 3.39 µM
- GI50 (SF-295 CNS): 0.306 µM
- TGI (SF-295 CNS): 1120 nM
- GI50 (T-47D breast): 2410 nM
- TGI (T-47D breast): > 100 µM
- GI50 (MOLT-4 leukemia): 454 nM
- TGI (MOLT-4 leukemia): 4.6 µM
- GI50 (HL-60(TB) leukemia): 840 nM
- TGI (HL-60(TB) leukemia): 3.96 µM
- GI50 (M14 melanoma): 1400 nM
- TGI (M14 melanoma): 4.93 µM
- GI50 (SK-MEL-2 melanoma): 1300 nM
- TGI (SK-MEL-2 melanoma): 4.61 µM
- GI50 (IGROV1 ovarian): 1.79 µM
- TGI (IGROV1 ovarian): 5.64 µM
- GI50 (EKVX NSCLC): 1.63 µM
- TGI (EKVX NSCLC): 6.39 µM
- GI50 (MALME-3M melanoma): 1330 nM
- TGI (MALME-3M melanoma): 3.7 µM
- GI50 (RPMI-8226 leukemia): 251 nM
- TGI (RPMI-8226 leukemia): 684 nM
- GI50 (HOP-62 NSCLC): 2.56 µM
- TGI (HOP-62 NSCLC): > 100 µM
- GI50 (HS 578T breast): 0.486 µM
- TGI (HS 578T breast): 5.87 µM
- GI50 (SR leukemia): 578 nM
- TGI (SR leukemia): 4.51 µM
- GI50 (NCI/ADR-RES ovarian): 2.52 µM
- TGI (NCI/ADR-RES ovarian): 48.8 µM
- GI50 (OVCAR-3 ovarian): 1640 nM
- TGI (OVCAR-3 ovarian): 3.56 µM
- GI50 (RXF 393 renal): 178 nM
- TGI (RXF 393 renal): 503 nM
- GI50 (SK-MEL-5 melanoma): 1930 nM
- TGI (SK-MEL-5 melanoma): 4.05 µM
- GI50 (HT29 colon): 1790 nM
- TGI (HT29 colon): 4.86 µM
- GI50 (CAKI-1 renal): 1520 nM
- TGI (CAKI-1 renal): 4.15 µM
- GI50 (SF-268 CNS): 2.21 µM
- TGI (SF-268 CNS): > 100 µM
- GI50 (LOX IMVI melanoma): 1380 nM
- TGI (LOX IMVI melanoma): 2.88 µM
- GI50 (HCT-15 colon): 1330 nM
- TGI (HCT-15 colon): 3.26 µM
- GI50 (MCF7 breast): 808 nM
- TGI (MCF7 breast): 2.35 µM
- GI50 (A498 renal): 0.219 µM
- TGI (A498 renal): 1.05 µM
- GI50 (SK-MEL-28 melanoma): 420 nM
- TGI (SK-MEL-28 melanoma): 1660 nM
- GI50 (SF-539 CNS): 0.359 µM
- TGI (SF-539 CNS): 1.46 µM
- GI50 (NCI-H226 lung): 1.62 µM
- TGI (NCI-H226 lung): 3.51 µM
- GI50 (OVCAR-4 ovarian): 3540 nM
- TGI (OVCAR-4 ovarian): > 100 µM
- GI50 (MDA-MB-435): 1.89 µM
- TGI (MDA-MB-435): 5.41 µM
- GI50 (KM12 colon): 1.97 µM
- TGI (KM12 colon): 4.35 µM
- GI50 (HOP-92 NSCLC): 2470 nM
- TGI (HOP-92 NSCLC): 6.75 µM
- GI50 (UO-31 renal): 1450 nM
- TGI (UO-31 renal): 3.04 µM
- GI50 (OVCAR-8 ovarian): 3.55 µM
- TGI (OVCAR-8 ovarian): > 100 µM
- GI50 (NCI-H23 lung): 1.81 µM
- TGI (NCI-H23 lung): > 100 µM
